From article PMC5562523 (Cell chemical biology, 2017)

Experiments:
CDC1551 (ΔphoPR) = format: cell-based; details: acidic pH
CDC1551 katG::Tn mutant = format: cell-based, Mycobacterium tuberculosis; details: pH 5.7

SMILES: COc1ccc(NC(=O)c2nc(S(C)(=O)=O)ncc2Cl)cc1Cl [AC2P36, 5-chloro-N-(3-chloro-4-methoxyphenyl)-2-methylsulfonylpyrimidine-4-carboxamide]
- sensitivity of ΔphoPR mutant vs WT to AC2P36 (CDC1551 (ΔphoPR)): no differences were observed between WT or ΔphoPR sensitivity to AC2P36
- sensitivity of WT, katG::Tn mutant and complemented strain to AC2P36 (CDC1551 katG::Tn mutant): No difference was observed between the three strains
